Results reported in ChEMBL document CHEMBL1201862, “PubChem BioAssay data set” (2004).
Several values for one entry are separate records, joined by “and”; a condition that tells them apart may be missing. Identical values can stand only once.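 96-well plates; 48 h exposure; 5 concentrations. Endpoints by linear interpolation between flanking doses. Not reached: highest tested concentration assigned. The concentration for 50% growth inhibition is given as GI50.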 Activity calls are given as the source filed them. No stated cut-off is given here; in the data, active = GI50 up to about 1.1 µM and inactive = higher.

How the values were obtained:
Assay in all cases: inhibition of tumour cell growth, NCI panel, 48 h
[1] = system: HCT-15
[2] = system: HOP-62
[3] = system: RPMI-8226
[4] = system: SF-539
[5] = system: SK-OV-3
[6] = system: SNB-75
[7] = system: HL-60
[8] = system: DU-145
[9] = system: M14
[10] = system: HCT-116
[11] = system: OVCAR-8
[12] = system: SN12C
[13] = system: ACHN
[14] = system: PC-3
[15] = system: MDA-MB-435
[16] = system: SK-MEL-5
[17] = system: SK-MEL-28
[18] = system: NCI/ADR-RES
[19] = system: SNB-78
[20] = system: LXFL 529

Row | SMILES | GI50 [1] [µM] | GI50 [2] | GI50 [3] | GI50 [4] | GI50 [5] | GI50 [6] | GI50 [7] | GI50 [8] | GI50 [9] | GI50 [10] | GI50 [11] | GI50 [12] | GI50 [13] | GI50 [14] | GI50 [15] | GI50 [16] | GI50 [17] | GI50 [18] | GI50 [19] | GI50 [20]
1 | CC(NC(=O)C(NC(=O)CNC(=O)OC(C)(C)C)C(C)C)C(=O)Oc1c(Cl)c(Cl)c(Cl)c(Cl)c1Cl (stereo unspecified) | 17.5 | 18.4 µM (inactive) | 45.2 µM (inactive) | 17.5 µM (inactive) | 21.5 µM (inactive) | 28 µM (inactive) | 55.2 µM (inactive) | 20.5 µM (inactive) | 18.8 µM (inactive) | 17.3 µM (inactive) | 19.4 µM (inactive) | 19.2 µM (inactive) | 21.8 µM (inactive) | 16 µM (inactive) | 23.4 µM (inactive) | 17.1 µM (inactive) | 26.6 µM (inactive) | 17.5 µM (inactive) | – | –
2 | CC1(CO)C(O)CCC2(C)C1C(O)CC1CC3CC12CCC3(O)CO (stereo unspecified) | > 225 | > 225 µM (inactive) | > 158 µM (inactive) | > 225 µM (inactive) | > 225 µM (inactive) | > 189 µM (inactive) | 102 µM (inactive) | – | – | > 217 µM (inactive) | > 213 µM (inactive) | > 225 µM (inactive) | – | – | – | > 225 µM (inactive) | > 225 µM (inactive) | > 225 µM (inactive) | > 225 µM (inactive) | –
3 | C=CCN1C(=O)/C(=C/c2ccccc2)N=C1SC1OC(COC(=O)c2ccccc2)C(OC(=O)c2ccccc2)C1OC(=O)c1ccccc1 (stereo unspecified) | > 100 | > 100 µM (inactive) | 16.4 µM (inactive) | > 100 µM (inactive) | > 100 µM (inactive) | > 100 µM (inactive) | 32.8 µM (inactive) | > 100 µM (inactive) | – | – | > 100 µM (inactive) | – | 30.3 µM (inactive) | > 100 µM (inactive) | > 100 µM (inactive) | > 100 µM (inactive) | > 100 µM (inactive) | > 100 µM (inactive) | – | –
4 | Cc1cc(OCC(O)CO)ccc1Cl (stereo unspecified) | > 100 | > 100 µM (inactive) | > 100 µM (inactive) | > 100 µM (inactive) | > 100 µM (inactive) | 87.3 µM (inactive) | > 100 µM (inactive) | – | > 100 µM (inactive) | > 100 µM (inactive) | > 100 µM (inactive) | > 100 µM (inactive) | > 100 µM (inactive) | – | – | > 100 µM (inactive) | > 100 µM (inactive) | – | – | > 100 µM (inactive)
5 | CC1=CC2=C(C=O)C(=O)[C@](C)(O)[C@@H](O)C2=CO1 | 28.8 | 24.3 µM (inactive) | 15.9 µM (inactive) | 29.4 µM (inactive) | 19.5 µM (inactive) | 13.8 µM (inactive) | – | – | – | 22.3 µM (inactive) | > 64.7 µM (inactive) | 28.6 µM (inactive) | – | – | – | 24.6 µM (inactive) | 25.2 µM (inactive) | > 53.8 µM (inactive) | 38.5 µM (inactive) | –
6 | O=[N+]([O-])c1ccc(CNC2=NNS(=O)(=O)c3ccccc32)cc1 | 75.5 | – | 34.5 µM (inactive) | > 100 µM (inactive) | – | – | 79.3 µM (inactive) | – | > 100 µM (inactive) | > 100 µM (inactive) | > 100 µM (inactive) | > 100 µM (inactive) | > 100 µM (inactive) | – | – | > 100 µM (inactive) | – | – | > 100 µM (inactive) | 36.1 µM (inactive)
7 | CC/C(CC(=O)CCC(=O)Nc1ccc(C)c(C)c1)=N\NC(=O)c1cc2ccccc2cc1O | 13.9 | 26 µM (inactive) | – | – | 13.6 µM (inactive) | – | 1.92 µM (inactive) | – | 17.1 µM (inactive) | 37.6 µM (inactive) | 21.4 µM (inactive) | 28.3 µM (inactive) | 24.9 µM (inactive) | – | – | – | 20.7 µM (inactive) | – | 48.5 µM (inactive) | 21.9 µM (inactive)
8 | COC(=N)C(C)C | > 100 | > 100 µM (inactive) | > 100 µM (inactive) | > 100 µM (inactive) | > 100 µM (inactive) | > 100 µM (inactive) | > 100 µM (inactive) | – | > 100 µM (inactive) | > 100 µM (inactive) | – | > 100 µM (inactive) | > 100 µM (inactive) | – | – | > 100 µM (inactive) | > 100 µM (inactive) | – | > 100 µM (inactive) | > 100 µM (inactive)
9 | NC(CSC(=O)c1ccccc1)C(=O)O (stereo unspecified) | > 100 | > 100 µM (inactive) | > 100 µM (inactive) | > 100 µM (inactive) | > 100 µM (inactive) | > 100 µM (inactive) | > 100 µM (inactive) | > 100 µM (inactive) | > 100 µM (inactive) | > 100 µM (inactive) | > 100 µM (inactive) | > 100 µM (inactive) | > 100 µM (inactive) | > 100 µM (inactive) | > 100 µM (inactive) | > 100 µM (inactive) | > 100 µM (inactive) | > 100 µM (inactive) | – | –
10 | CC#CC#C/C=C1\C=CC2(OC=CC2OC(C)=O)O1 (stereo unspecified) | – | > 100 µM (inactive) | 23.2 µM (inactive) | 25.5 µM (inactive) and 20.7 µM (inactive) | > 100 µM (inactive) and > 89.1 µM (inactive) | 38.3 µM (inactive) and 24.9 µM (inactive) | 20.2 µM (inactive) and 10.4 µM (inactive) | 20.4 µM (inactive) | 29.8 µM (inactive) and 18.4 µM (inactive) | – | 31.4 µM (inactive) and 17.9 µM (inactive) | 15.7 µM (inactive) and 16.5 µM (inactive) | 10.4 µM (inactive) | 28.2 µM (inactive) | 29.4 µM (inactive) | 17.9 µM (inactive) | – | 28.6 µM (inactive) | 10.4 µM (inactive) | 16.3 µM (inactive)
11 | O=C1C=C2SC3C[C@@]24CC1(O)[N+]1=c2c4c(c(O)c4c2=C(C=N4)CC1)N3 | 1.64 | 1.82 µM (inactive) | 0.457 µM (active) | 1.51 µM (inactive) | 1.95 µM (inactive) | 1.83 µM (inactive) | 0.217 µM (active) | – | – | 0.217 µM (active) | 0.33 µM (active) | 1.22 µM (inactive) | – | – | – | 1.5 µM (inactive) | 1.64 µM (inactive) | 0.887 µM (active) | 1.61 µM (inactive) | –
12 | COc1ccc(-c2cc(O)c3cc(C)cnc3n2)cc1 | 3.23 | 6.56 µM (inactive) | 3.73 µM (inactive) | 6.41 µM (inactive) | 4.14 µM (inactive) | – | – | 19.2 µM (inactive) | 3.94 µM (inactive) | – | 4.57 µM (inactive) | 5.13 µM (inactive) | 7.06 µM (inactive) | – | 1.85 µM (inactive) | – | 28.6 µM (inactive) | 3.73 µM (inactive) | – | –
